Source: paper PMC9518264, “Design and synthesis of novel quinazolinone-based derivatives as EGFR inhibitors with antitumor activity” (Journal of Enzyme Inhibition and Medicinal Chemistry, 2022)

How the values were obtained:
MDA-MB-231/ATCC = experiment: NCI 60 cell line antiproliferative screening (SRB), Breast cancer; type: cell-based; conditions: Homo sapiens, MDA-MB-231, read-out: growth inhibition % (GI%)
HCT-15 = experiment: cells; type: cell-based; conditions: Homo sapiens, HCT-15, read-out: growth inhibition % (GI%)
PC-3 = experiment: cells; type: cell-based; conditions: Homo sapiens, PC-3, read-out: growth inhibition % (GI%)
K-562 = experiment: cells; type: cell-based; conditions: Homo sapiens, K562, read-out: growth inhibition % (GI%)
SK-OV-3 = experiment: cells; type: cell-based; conditions: Homo sapiens, SK-OV-3, read-out: growth inhibition % (GI%)
OVCAR-8 = experiment: cells; type: cell-based; conditions: Homo sapiens, OVCAR-8, read-out: growth inhibition % (GI%)
OVCAR-3 = experiment: NCI 60 cell line antiproliferative screening (SRB), Ovarian cancer; conditions: Homo sapiens, OVCAR-3, read-out: growth inhibition % (GI%)
IGROV1 = experiment: cells; type: cell-based; conditions: Homo sapiens, IGROV-1, read-out: growth inhibition % (GI%)
NCI-H226 = experiment: cells; type: cell-based; conditions: Homo sapiens, NCI-H226, read-out: growth inhibition % (GI%)
ACHN = experiment: cells; type: cell-based; conditions: Homo sapiens, read-out: growth inhibition % (GI%)
CCRF-CEM = experiment: cells; type: cell-based; conditions: Homo sapiens, read-out: growth inhibition % (GI%)
SK-MEL-2 = experiment: cells; type: cell-based; conditions: Homo sapiens, SK-MEL-2, read-out: growth inhibition % (GI%)
EKVX = experiment: cells; type: cell-based; conditions: Homo sapiens, read-out: growth inhibition % (GI%)
A549/ATCC = experiment: cells; type: cell-based; conditions: Homo sapiens, A549, read-out: growth inhibition % (GI%)
TK-10 = experiment: cells; type: cell-based; conditions: Homo sapiens, TK-10, read-out: growth inhibition % (GI%)
SK-MEL-5 = experiment: cells; type: cell-based; conditions: Homo sapiens, SK-MEL-5, read-out: growth inhibition % (GI%)
SNB-19 = experiment: cells; type: cell-based; conditions: Homo sapiens, SNB-19, read-out: growth inhibition % (GI%)
MOLT-4 = experiment: cells; type: cell-based; conditions: Homo sapiens, MOLT-4, read-out: growth inhibition % (GI%)
NCI-H322M = experiment: cells; type: cell-based; conditions: Homo sapiens, read-out: growth inhibition % (GI%)
HCC-2998 = experiment: cells; type: cell-based; conditions: Homo sapiens, HCC 2998, read-out: growth inhibition % (GI%)
OVCAR-4 = experiment: cells; type: cell-based; conditions: Homo sapiens, OVCAR-4, read-out: growth inhibition % (GI%)
LOX IMIV = experiment: cells; type: cell-based; conditions: Homo sapiens, 60 cell, read-out: growth inhibition % (GI%)
T-47D = experiment: cells; type: cell-based; conditions: Homo sapiens, T47D, read-out: growth inhibition % (GI%)
SW-620 = experiment: cells; type: cell-based; conditions: Homo sapiens, SW-620, read-out: growth inhibition % (GI%)
HS 578T = experiment: cells; type: cell-based; conditions: Homo sapiens, Hs-578T, read-out: growth inhibition % (GI%)
A498 = experiment: cells; type: cell-based; conditions: Homo sapiens, A498, read-out: growth inhibition % (GI%)
SR = experiment: cells; type: cell-based; conditions: Homo sapiens, read-out: growth inhibition % (GI%)
SK-MEL-28 = experiment: cells; type: cell-based; conditions: Homo sapiens, SK-MEL-28, read-out: growth inhibition % (GI%)
786-0 = experiment: cells; type: cell-based; conditions: Homo sapiens, 786-0, read-out: growth inhibition % (GI%)
SF-295 = experiment: cells; type: cell-based; conditions: Homo sapiens, SF-295, read-out: growth inhibition % (GI%)
MDA-MB-435 = experiment: cells; type: cell-based; conditions: Homo sapiens, MDA-MB-435, read-out: growth inhibition % (GI%)
[1] = system: panel of 60 tumour cell lines; experiment: NCI 60 cell line antiproliferative screening (SRB), whole panel or subpanels (means, ranges, words); type: cell-based, human; conditions: 10 μM; for GI% range over a subset of cell lines: subset of cell lines whose number is stated in the sentence; for inhibition at 10 µM: Homo sapiens, 60 cell, mean over the cell line panel, read-out: Mean growth inhibition % (mean GI%)
NCI-H522 = experiment: cells; type: cell-based; conditions: Homo sapiens, NCI-H522, read-out: growth inhibition % (GI%)
SF-268 = experiment: cells; type: cell-based; conditions: Homo sapiens, SF-268, read-out: growth inhibition % (GI%)
HCT-116 = experiment: cells; type: cell-based; conditions: Homo sapiens, HCT-116, read-out: growth inhibition % (GI%)
HOP-92 = experiment: cells; type: cell-based; conditions: Homo sapiens, HOP-92, read-out: growth inhibition % (GI%)
MCF7 = experiment: cells; type: cell-based; conditions: Homo sapiens, MCF7, read-out: growth inhibition % (GI%)
KM12 = experiment: cells; type: cell-based; conditions: Homo sapiens, KM12, read-out: growth inhibition % (GI%)
COLO-205 = experiment: cells; type: cell-based; conditions: Homo sapiens, COLO 205, read-out: growth inhibition % (GI%)
HOP-62 = experiment: cells; type: cell-based; conditions: Homo sapiens, HOP-62, read-out: growth inhibition % (GI%)
MDA-MB-468 = experiment: NCI 60 cell line antiproliferative screening (SRB), Breast cancer; conditions: Homo sapiens, MDA-MB-468, read-out: growth inhibition % (GI%)
SN12C = experiment: cells; type: cell-based; conditions: Homo sapiens, read-out: growth inhibition % (GI%)
U251 = experiment: cells; type: cell-based; conditions: Homo sapiens, U-251, read-out: growth inhibition % (GI%)
HT29 = experiment: cells; type: cell-based; conditions: Homo sapiens, HT-29, read-out: growth inhibition % (GI%)
SNB-75 = experiment: cells; type: cell-based; conditions: Homo sapiens, SNB-75, read-out: growth inhibition % (GI%)
UO-31 = experiment: cells; type: cell-based; conditions: Homo sapiens, UO-31, read-out: growth inhibition % (GI%)

## COc1ccc(Oc2ccc(C=NNC(=O)CSc3nc4ccccc4c(=O)n3-c3ccc(Cl)cc3)cc2)cc1 [6f, 2-((3–(4-chlorophenyl)-4-oxo-3,4-dihydroquinazolin-2-yl)thio)-N'-(4–(4-methoxyphenoxy)benzylidene)acetohydrazide]
MDA-MB-231/ATCC
  inhibition at 10 µM: 53.3%
HCT-15
  inhibition at 10 µM: 44%
PC-3
  inhibition at 10 µM: 36.3%
K-562
  inhibition at 10 µM: 41.6%
SK-OV-3
  inhibition at 10 µM: 33.7%
OVCAR-8
  inhibition at 10 µM: < 15%
OVCAR-3
  inhibition at 10 µM: > 100%
IGROV1
  inhibition at 10 µM: 51.4%
NCI-H226
  inhibition at 10 µM: 20.3%
ACHN
  inhibition at 10 µM: 92.2%
CCRF-CEM
  inhibition at 10 µM: 36.5%
SK-MEL-2
  inhibition at 10 µM: < 15%
EKVX
  inhibition at 10 µM: 30.6%
A549/ATCC
  inhibition at 10 µM: 53%
TK-10
  inhibition at 10 µM: < 15%
SK-MEL-5
  inhibition at 10 µM: 22%
SNB-19
  inhibition at 10 µM: 38.5%
MOLT-4
  inhibition at 10 µM: 38.3%
NCI-H322M
  inhibition at 10 µM: 15.3%
HCC-2998
  inhibition at 10 µM: 16.6%
OVCAR-4
  inhibition at 10 µM: 27.4%
LOX IMIV
  inhibition at 10 µM: 85.3%
T-47D
  inhibition at 10 µM: 62.1%
SW-620
  inhibition at 10 µM: 55.6%
HS 578T
  inhibition at 10 µM: > 100%
A498
  inhibition at 10 µM: 27.1%
SR
  inhibition at 10 µM: 27.2%
SK-MEL-28
  inhibition at 10 µM: < 15%
786-0
  inhibition at 10 µM: 74.8%
SF-295
  inhibition at 10 µM: 32.3%
MDA-MB-435
  inhibition at 10 µM: < 15%
[1]
  GI% range over a subset of cell lines: 67.83 to 30.59%
  inhibition at 10 µM: 42.5%
NCI-H522
  inhibition at 10 µM: 48.7%
SF-268
  inhibition at 10 µM: 42.1%
HCT-116
  inhibition at 10 µM: 86.7%
HOP-92
  inhibition at 10 µM: 22.7%
MCF7
  inhibition at 10 µM: 50.7%
KM12
  inhibition at 10 µM: 22.8%
COLO-205
  inhibition at 10 µM: 27.2%
HOP-62
  inhibition at 10 µM: 26.7%
MDA-MB-468
  inhibition at 10 µM: 33.2%
SN12C
  inhibition at 10 µM: 47.3%
U251
  inhibition at 10 µM: 63.5%
HT29
  inhibition at 10 µM: 83.9%
SNB-75
  inhibition at 10 µM: 58.4%
UO-31
  inhibition at 10 µM: 52.3%

## O=C(CSc1nc2ccccc2c(=O)n1-c1ccccc1)NN=Cc1ccc(Oc2ccc(Cl)cc2)cc1 [6a, N'-(4–(4-chlorophenoxy)benzylidene)-2-((4-oxo-3-phenyl-3,4-dihydroquinazolin-2-yl)thio)acetohydrazide]
MDA-MB-231/ATCC
  inhibition at 10 µM: 50.8%
HCT-15
  inhibition at 10 µM: 39.2%
PC-3
  inhibition at 10 µM: 41.3%
K-562
  inhibition at 10 µM: 38.8%
SK-OV-3
  inhibition at 10 µM: 16.8%
OVCAR-8
  inhibition at 10 µM: 40.8%
OVCAR-3
  inhibition at 10 µM: < 15%
IGROV1
  inhibition at 10 µM: 50.9%
NCI-H226
  inhibition at 10 µM: 27.9%
ACHN
  inhibition at 10 µM: 25.5%
CCRF-CEM
  inhibition at 10 µM: 49.6%
SK-MEL-2
  inhibition at 10 µM: 13.1%
EKVX
  inhibition at 10 µM: 41%
A549/ATCC
  inhibition at 10 µM: 58.3%
TK-10
  inhibition at 10 µM: < 15%
SK-MEL-5
  inhibition at 10 µM: 28.8%
SNB-19
  inhibition at 10 µM: 66.8%
MOLT-4
  inhibition at 10 µM: 41.3%
NCI-H322M
  inhibition at 10 µM: 15.5%
HCC-2998
  inhibition at 10 µM: < 15%
OVCAR-4
  inhibition at 10 µM: 26.2%
LOX IMIV
  inhibition at 10 µM: 86%
T-47D
  inhibition at 10 µM: 17.5%
SW-620
  inhibition at 10 µM: 56.9%
HS 578T
  inhibition at 10 µM: 41.1%
A498
  inhibition at 10 µM: 34.3%
SR
  inhibition at 10 µM: 29.7%
SK-MEL-28
  inhibition at 10 µM: 37.6%
786-0
  inhibition at 10 µM: 46.8%
SF-295
  inhibition at 10 µM: 16.2%
MDA-MB-435
  inhibition at 10 µM: 15.4%
[1]
  GI% range over a subset of cell lines: 67.86% to 30.09
  inhibition at 10 µM: 37.3%
NCI-H522
  inhibition at 10 µM: 50.4%
SF-268
  inhibition at 10 µM: < 15%
HCT-116
  inhibition at 10 µM: 94.4%
HOP-92
  inhibition at 10 µM: 33.3%
MCF7
  inhibition at 10 µM: 35.5%
KM12
  inhibition at 10 µM: 16.3%
COLO-205
  inhibition at 10 µM: 50.8%
HOP-62
  inhibition at 10 µM: 40.9%
MDA-MB-468
  inhibition at 10 µM: 28.4%
SN12C
  inhibition at 10 µM: 73.1%
U251
  inhibition at 10 µM: 84.8%
HT29
  inhibition at 10 µM: 40.9%
SNB-75
  inhibition at 10 µM: 39.9%
UO-31
  inhibition at 10 µM: 18.8%
